Measurements published in US20230340011A1 (Asteroid Therapeutics, priority 2022, published 2023).
pEC50, pIC50: −log10 of the molar value.

What was measured:
[1] = molecular target: SREBP-2 (Homo sapiens (Human), UniProt Q12772); assay: In vitro assay SREBP-2: PathHunter U2OS SREBP-2 Nuclear Translocation Cell Line, U18666A-stimulated; assay type: cell-based; conditions: PathHunter U2OS SREBP-2 nuclear translocation cells, U18666A 10 μM, overnight (16 hours)
[2] = molecular target: LXRβ (Homo sapiens (Human), UniProt P55055); assay: In vitro assay LXRβ: PathHunter NHR CHO cells, LXRβ / Steroid Receptor Co-activator Peptide enzyme fragment complementation; assay type: cell-based; conditions: PathHunter NHR CHO cells, full-length human LXRβ and SRCP, chemiluminescent signal; read-out: LXRβ PPI
Method in brief: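 Enzyme fragment complementation read-out: CHO cells stably expressing ProLink-tagged full-length human LXRβ plus nuclear enzyme acceptor–SRCP fusion, seeded and held overnight at 37° C. Medium with charcoal-dextran filtered serum; final vehicle 1%. Chemiluminescence measured after signal generation.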

LXRβ, sequence (P55055 whole entry, the tested form may be a part): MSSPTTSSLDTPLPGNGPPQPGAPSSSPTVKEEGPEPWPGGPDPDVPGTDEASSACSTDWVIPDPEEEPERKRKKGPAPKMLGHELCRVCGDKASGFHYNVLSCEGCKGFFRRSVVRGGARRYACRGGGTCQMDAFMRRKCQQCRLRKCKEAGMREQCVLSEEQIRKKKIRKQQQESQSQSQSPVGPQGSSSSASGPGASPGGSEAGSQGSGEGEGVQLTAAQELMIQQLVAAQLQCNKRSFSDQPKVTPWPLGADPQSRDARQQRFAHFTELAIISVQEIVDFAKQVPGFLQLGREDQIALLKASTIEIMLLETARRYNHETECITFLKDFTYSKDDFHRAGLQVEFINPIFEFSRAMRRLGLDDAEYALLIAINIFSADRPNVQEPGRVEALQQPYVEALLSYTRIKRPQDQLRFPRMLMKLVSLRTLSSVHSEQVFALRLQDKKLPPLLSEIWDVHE

Row | Compound | pIC50 [1] | pEC50 [2]
1 | C[C@H](CCC(=O)N1CCN(c2ccncc2)C[C@@H]1C)[C@H]1CC[C@H]2[C@@H]3CC=C4C[C@@H](O)CC[C@]4(C)[C@H]3CC[C@]12C [Example 580, (R)-4-((3S,8S,9S,10R,13R,14S,17R)-3-hydroxy-10,13-dimethyl-2,3,4,7,8,9,10,11,12,13,14,15,16,17-tetradecahydro-1H-cyclopenta[a]phenanthren-17-yl)-1-((S)-2-methyl-4-(pyridin-4-yl)piperazin-1-yl)pentan-1-one] | > 6.60 | < 5.00
2 | C[C@H](CCc1ncccn1)[C@H]1CC[C@H]2[C@@H]3CC=C4C[C@@H](O)CC[C@]4(C)[C@H]3CC[C@]12C [Example 133, (1R,3aS,3bS,7S,9aR,9bS,11aR)-9a,11a-dimethyl-1-[(2R)-4-(pyrimidin-2-yl)butan-2-yl]-1H,2H,3H,3aH,3bH,4H,6H,7H,8H,9H,9aH,9bH,10H,11H,11aH-cyclopenta[a]phenanthren-7-ol] | 6.00 to 6.60 | 6.00 to 6.60
3 | C[C@H](COc1ncccc1CO)[C@H]1CC[C@H]2[C@@H]3CC=C4C[C@@H](O)CC[C@]4(C)[C@H]3CC[C@]12C [Example 257, (3S,8S,9S,10R,13S,14S,17R)-17-((S)-1-((3-(hydroxymethyl)pyridin-2-yl)oxy)propan-2-yl)-10,13-dimethyl-2,3,4,7,8,9,10,11,12,13,14,15,16,17-tetradecahydro-1H-cyclopenta[a]phenanthren-3-ol] | > 6.60 | < 5.00
4 | C[C@H](CCC(=O)N1CCN(C(=O)N(C)CC2CC2)CC1)[C@H]1CC[C@H]2[C@@H]3CC=C4C[C@@H](O)CC[C@]4(C)[C@H]3CC[C@]12C [Example 210, N-(cyclopropylmethyl)-4-((R)-4-((3S,8S,9S,10R,13R,14S,17R)-3-hydroxy-10,13-dimethyl-2,3,4,7,8,9,10,11,12,13,14,15,16,17-tetradecahydro-1H-cyclopenta[a]phenanthren-17-yl)pentanoyl)-N-methylpiperazine-1-carboxamide] | > 6.60 | < 5.00
5 | COc1ccc(CC[C@@H](C)[C@H]2CC[C@H]3[C@@H]4CC=C5C[C@@H](O)CC[C@]5(C)[C@H]4CC[C@]23C)nc1 [Example 601, (1R,3aS,3bS,7S,9aR,9bS,11aR)-1-[(2R)-4-(5-methoxypyridin-2-yl)butan-2-yl]-9a,11a-dimethyl-1H,2H,3H,3aH,3bH,4H,6H,7H,8H,9H,9aH,9bH,10H,11H,11aH-cyclopenta[a]phenanthren-7-ol] | 6.00 to 6.60 | 5.00 to 6.00
6 | C[C@H](CCC(=O)N1CCC[C@H]1C)[C@H]1CC[C@H]2[C@@H]3CC=C4C[C@@H](O)CC[C@]4(C)[C@H]3CC[C@]12C [Example 113, (R)-4-((3S,8S,9S,10R,13R,14S,17R)-3-hydroxy-10,13-dimethyl-2,3,4,7,8,9,10,11,12,13,14,15,16,17-tetradecahydro-1H-cyclopenta[a]phenanthren-17-yl)-1-((R)-2-methylpyrrolidin-1-yl)pentan-1-one] | > 6.60 | 6.00 to 6.60
7 | C=CCN1C[C@@H]2CCN(C(=O)CC[C@@H](C)[C@H]3CC[C@H]4[C@@H]5CC=C6C[C@@H](O)CC[C@]6(C)[C@H]5CC[C@]34C)[C@@H]2C1 [Example 139, (R)-1-((3aS,6aS)-5-allylhexahydropyrrolo[3,4-b]pyrrol-1(2H)-yl)-4-((3S,8S,9S,10R,13R,14S,17R)-3-hydroxy-10,13-dimethyl-2,3,4,7,8,9,10,11,12,13,14,15,16,17-tetradecahydro-1H-cyclopenta[a]phenanthren-17-yl)pentan-1-one] | 6.00 to 6.60 | < 5.00
8 | CC(=O)N(C)[C@@H]1CCN(C(=O)CC[C@@H](C)[C@H]2CC[C@H]3[C@@H]4CC=C5C[C@@H](O)CC[C@]5(C)[C@H]4CC[C@]23C)C1 [Example 323, N—((R)-1-((R)-4-((3S,8S,9S,10R,13R,14S,17R)-3-hydroxy-10,13-dimethyl-2,3,4,7,8,9,10,11,12,13,14,15,16,17-tetradecahydro-1H-cyclopenta[a]phenanthren-17-yl)pentanoyl)pyrrolidin-3-yl)-N-methylacetamide] | 6.00 to 6.60 | < 5.00
9 | C[C@H](CCC(=O)N1CCN(C(=O)c2cnn(C)c2)CC1)[C@H]1CC[C@H]2[C@@H]3CC=C4C[C@@H](O)CC[C@]4(C)[C@H]3CC[C@]12C [Example 309, (4R)-4-[(1R,3aS,3bS,7S,9aR,9bS,11aR)-7-hydroxy-9a,11a-dimethyl-1H,2H,3H,3aH,3bH,4H,6H,7H,8H,9H,9aH,9bH,10H,11H,11aH-cyclopenta[a]phenanthren-1-yl]-1-[4-(1-methyl-1H-pyrazole-4-carbonyl)piperazin-1-yl]pentan-1-one] | > 6.60 | < 5.00
10 | C[C@H](CCc1cccnc1)[C@H]1CC[C@H]2[C@@H]3CC=C4C[C@@H](O)CC[C@]4(C)[C@H]3CC[C@]12C [Example 159, (3S,8S,9S,10R,13R,14S,17R)-10,13-dimethyl-17-((R)-4-(pyridin-3-yl)butan-2-yl)-2,3,4,7,8,9,10,11,12,13,14,15,16,17-tetradecahydro-1H-cyclopenta[a]phenanthren-3-ol] | > 6.60 | < 5.00
11 | C[C@H](CCC(=O)N1CCN(c2ccn(C3CC3)c2)CC1)[C@H]1CC[C@H]2[C@@H]3CC=C4C[C@@H](O)CC[C@]4(C)[C@H]3CC[C@]12C [Example 516, (R)-1-(4-(1-cyclopropyl-1H-pyrrol-3-yl)piperazin-1-yl)-4-((3S,8S,9S,10R,13R,14S,17R)-3-hydroxy-10,13-dimethyl-2,3,4,7,8,9,10,11,12,13,14,15,16,17-tetradecahydro-1H-cyclopenta[a]phenanthren-17-yl)pentan-1-one] | > 6.60 | < 5.00
12 | COc1cncnc1N1CCN(C(=O)CC[C@@H](C)[C@H]2CC[C@H]3[C@@H]4CC=C5C[C@@H](O)CC[C@]5(C)[C@H]4CC[C@]23C)CC1 [Example 204, (4R)-4-[(1R,3aS,3bS,7S,9aR,9bS,11aR)-7-hydroxy-9a,11a-dimethyl-1H,2H,3H,3aH,3bH,4H,6H,7H,8H,9H,9aH,9bH,10H,11H,11aH-cyclopenta[a]phenanthren-1-yl]-1-[4-(5-methoxypyrimidin-4-yl)piperazin-1-yl]pentan-1-one] | > 6.60 | < 5.00
13 | C[C@H](CCC(=O)N1CCC(C)(C(=O)N(C)C)CC1)[C@H]1CC[C@H]2[C@@H]3CC=C4C[C@@H](O)CC[C@]4(C)[C@H]3CC[C@]12C [Example 87, 1-((R)-4-((3S,8S,9S,10R,13R,14S,17R)-3-hydroxy-10,13-dimethyl-2,3,4,7,8,9,10,11,12,13,14,15,16,17-tetradecahydro-1H-cyclopenta[a]phenanthren-17-yl)pentanoyl)-N,N,4-trimethylpiperidine-4-carboxamide] | 6.00 to 6.60 | < 5.00
14 | C[C@H](CCC(=O)N(C)C1CCN(C(=O)N(C)C)CC1)[C@H]1CC[C@H]2[C@@H]3CC=C4C[C@@H](O)CC[C@]4(C)[C@H]3CC[C@]12C [Example 644, 4-((R)-4-((3S,8S,9S,10R,13R,14S,17R)-3-hydroxy-10,13-dimethyl-2,3,4,7,8,9,10,11,12,13,14,15,16,17-tetradecahydro-1H-cyclopenta[a]phenanthren-17-yl)-N-methylpentanamido)-N,N-dimethylpiperidine-1-carboxamide] | > 6.60 | < 5.00
15 | CC(C)OC(=O)N1CCN(C(=O)CC[C@@H](C)[C@H]2CC[C@H]3[C@@H]4CC=C5C[C@@H](O)CC[C@]5(C)[C@H]4CC[C@]23C)CC1 [Example 341, isopropyl4-((R)-4-((3S,8S,9S,10R,13R,14S,17R)-3-hydroxy-10,13-dimethyl-2,3,4,7,8,9,10,11,12,13,14,15,16,17-tetradecahydro-1H-cyclopenta[a]phenanthren-17-yl)pentanoyl)piperazine-1-carboxylate] | > 6.60 | < 5.00
16 | C[C@H](CCC(=O)N1CCN(C(=O)c2cn(C)cn2)CC1)[C@H]1CC[C@H]2[C@@H]3CC=C4C[C@@H](O)CC[C@]4(C)[C@H]3CC[C@]12C [Example 538, (4R)-4-[(1R,3aS,3bS,7S,9aR,9bS,11aR)-7-hydroxy-9a,11a-dimethyl-1H,2H,3H,3aH,3bH,4H,6H,7H,8H,9H,9aH,9bH,10H,11H,11aH-cyclopenta[a]phenanthren-1-yl]-1-[4-(1-methyl-1H-imidazole-4-carbonyl)piperazin-1-yl]pentan-1-one] | > 6.60 | < 5.00
17 | CCN(C(=O)C(=O)O[C@@H](C)[C@H]1CC[C@H]2[C@@H]3CC=C4C[C@@H](O)CC[C@]4(C)[C@H]3CC[C@]12C)C(C)C [Example 197, (S)-1-((3S,8S,9S,10R,13S,14S,17S)-3-hydroxy-10,13-dimethyl-2,3,4,7,8,9,10,11,12,13,14,15,16,17-tetradecahydro-1H-cyclopenta[a]phenanthren-17-yl)ethyl 2-(ethyl(isopropyl)amino)-2-oxoacetate] | > 6.60 | 6.00 to 6.60
18 | C[C@H](CCC(=O)N1CCN(C(=O)c2nnn(C)n2)CC1)[C@H]1CC[C@H]2[C@@H]3CC=C4C[C@@H](O)CC[C@]4(C)[C@H]3CC[C@]12C [Example 342, (R)-4-((3S,8S,9S,10R,13R,14S,17R)-3-hydroxy-10,13-dimethyl-2,3,4,7,8,9,10,11,12,13,14,15,16,17-tetradecahydro-1H-cyclopenta[a]phenanthren-17-yl)-1-(4-(2-methyl-2H-tetrazole-5-carbonyl)piperazin-1-yl)pentan-1-one] | > 6.60 | < 5.00
